What was measured:
Type in all cases: in vivo
[1] = tested on: Phakopsora pachyrhizi (the causal agent of Asian soybean rust); experiment: Test A: preventive spray on soybean seedlings, Asian soybean rust, visual disease rating; details: soybean seedlings
How it was run: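 Preventive test: soybean seedlings received a run-off spray of compound suspended at the set ppm in 50/50 acetone/water plus 250 ppm PEG400, and one day later a P. pachyrhizi spore inoculum. Visual scoring (0 none to 100 full disease control) followed 24 h saturated incubation and 8 days' growth chamber, both at 22° C.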

[2] = tested on: Zymoseptoria tritici (the causal agent of wheat leaf blotch); experiment: Test B: preventive spray on wheat seedlings, wheat leaf blotch, visual disease rating; details: wheat seedlings
Source text: General protocol for preparing test suspensions for Tests A-D: the test compounds were first dissolved in acetone in an amount equal to 3% of the final volume and then suspended at the desired concentration (in ppm) in acetone and purified water (50/50 mix by volume) containing 250 ppm of the surfactant PEG400 (polyhydric alcohol esters). The resulting test suspensions were then used in Tests A-D.
The test suspension was sprayed to the point of run-off on wheat seedlings. The following day the seedlings were inoculated with a spore suspension of Zymoseptoria tritici (the causal agent of wheat leaf blotch) and incubated in a saturated atmosphere at 24° C. for 48 h, and then moved to a growth chamber at 20° C. for 17 days, after which time visual disease ratings were made.
The test results for Tests A-C presented in Table A below for compounds of Formula 1 illustrate the fungicidal activity of component (a) contributing to the plant disease control utility of compositions comprising component (a) in combination with component (b) according to the present invention. In the Table, a rating of 100 indicates 100% disease control and a rating of 0 indicates no disease control (relative to the controls). A dash (-) indicates the compound was not tested. The test suspensions were sprayed at the concentration listed in the column “Rate in ppm”, unless otherwise indicated. An asterisk “*” next to the rating indicates a 250 ppm test suspension was used, a double asterisk “**” next to the rating indicates a 100 ppm test suspension was used, and a triple asterisk “***” next to the rating indicates a 50 ppm test suspension was used.

[3] = tested on: Puccinia recondita f. sp. tritici (the causal agent of wheat leaf rust); experiment: Test C: preventive spray on wheat seedlings, wheat leaf rust, visual disease rating; details: wheat seedlings
How it was run: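 Wheat seedlings sprayed to run-off with compound in acetone/water (50/50) with 250 ppm PEG400, then inoculated with spores the following day. After 24 h saturated humidity at 20° C. and 6 days in growth chamber at 20° C., disease rated visually as % control relative to untreated controls.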

Structure (SMILES)	Test A disease control rating ([1]; test suspension 250 ppm) [%]	Test B disease control rating ([2]; test suspension 250 ppm) [%]	Test C disease control rating ([3]; test suspension 250 ppm) [%]	also measured
N#Cc1ccc2ccn(Cc3ccc(-c4noc(C(F)(F)F)n4)cc3)c2c1 [compound 88]	100	93	100	–
N#Cc1ccn(Cc2ccc(-c3noc(C(F)(F)F)n3)cc2)c(=O)c1 [compound 89]	100	83	100	–
FC(F)(F)c1nc(-c2ccc(Cn3cnc4ccccc43)cc2)no1 [compound 91]	100	96	100	–
FC(F)(F)c1nc(-c2ccc(Cn3nnc4ccccc43)cc2)no1 [compound 92]	0	96	100	–
FC(F)(F)c1nc(-c2ccc(Cn3nc4ccccc4n3)cc2)no1 [compound 93]	100	39	99	–
O=[N+]([O-])c1ccc2c(cnn2Cc2ccc(-c3noc(C(F)(F)F)n3)cc2)c1 [compound 94]	100	35	78	–
FC(F)(F)c1nc(-c2ccc(CN3CCOCC3)cc2)no1 [compound 96]	100	0	99	–
CCOC(=O)c1cn(Cc2ccc(-c3noc(C(F)(F)F)n3)cc2)nc1C(F)(F)F [compound 111]	–	–	–	Test A disease control rating ([1]; test suspension 255 ppm): 100%; Test B disease control rating ([2]; test suspension 255 ppm): 0%; Test C disease control rating ([3]; test suspension 255 ppm): 86%
CCOC(=O)c1ccn(Cc2ccc(-c3noc(C(F)(F)F)n3)cc2)n1 [compound 114]	100	0	100	–
FC(F)(F)c1nc(-c2ccc(Cn3nc(Cl)c4ccccc43)cc2)no1 [compound 116]	–	–	–	Test A disease control rating ([1]; test suspension 265 ppm): 100%; Test B disease control rating ([2]; test suspension 265 ppm): 25%; Test C disease control rating ([3]; test suspension 265 ppm): 99%
CCOC(=O)c1nn(Cc2ccc(-c3noc(C(F)(F)F)n3)cc2)c2ccccc12 [compound 117]	–	–	–	Test A disease control rating ([1]; test suspension 255 ppm): 88%; Test B disease control rating ([2]; test suspension 255 ppm): 0%; Test C disease control rating ([3]; test suspension 255 ppm): 41%
O=c1oc2ccccc2n1Cc1ccc(-c2noc(C(F)(F)F)n2)cc1 [compound 118]	100	0	98	–
FC(F)(F)c1nc(-c2ccc(Cn3ncc4cc(Cl)ccc43)cc2)no1 [compound 119]	–	–	–	Test A disease control rating ([1]; test suspension 265 ppm): 100%; Test B disease control rating ([2]; test suspension 265 ppm): 54%; Test C disease control rating ([3]; test suspension 265 ppm): 100%
COc1ccc2c(C#N)nn(Cc3ccc(-c4noc(C(F)(F)F)n4)cc3)c2c1 [compound 120]	–	–	–	Test A disease control rating ([1]; test suspension 260 ppm): 99%; Test B disease control rating ([2]; test suspension 260 ppm): 0%; Test C disease control rating ([3]; test suspension 260 ppm): 68%
FC(F)(F)c1nc(-c2ccc(Cn3ccc(-c4ccc(Cl)cc4)n3)cc2)no1 [compound 122]	100	0	68	–
CCOC(=O)c1c2ccccc2nn1Cc1ccc(-c2noc(C(F)(F)F)n2)cc1 [compound 123]	–	–	–	Test A disease control rating ([1]; test suspension 255 ppm): 100%; Test B disease control rating ([2]; test suspension 255 ppm): 21%; Test C disease control rating ([3]; test suspension 255 ppm): 99%
CCOC(=O)C1CCN(Cc2ccc(-c3noc(C(F)(F)F)n3)cc2)C1 (stereo not drawn) [compound 124]	–	–	–	Test A disease control rating ([1]; test suspension 260 ppm): 100%; Test B disease control rating ([2]; test suspension 260 ppm): 50%; Test C disease control rating ([3]; test suspension 260 ppm): 100%
Fc1cccc2c1cnn2Cc1ccc(-c2noc(C(F)(F)F)n2)cc1 [compound 125]	–	–	–	Test A disease control rating ([1]; test suspension 260 ppm): 100%; Test B disease control rating ([2]; test suspension 260 ppm): 55%; Test C disease control rating ([3]; test suspension 260 ppm): 100%

Source: patent publication US20240090503A1, “FUNGICIDAL OXADIAZOLES AND THEIR MIXTURES” (FMC CORPORATION, priority 2020, published 2024)
